# Source: patent US4550186A, “Binuclear copper (II) carboxylates formed from amine-carboxyboranes” (Duke University, priority 1983, dated 1985)
# Columns and labels:
# Fatty Acid Synthetase = molecular target: T1, Fatty Acid Synthetase (Mus musculus, UniProt P19096); assay: In vitro liver enzyme study: fatty acid synthetase; format: biochemical; settings: in vitro CF1 liver
# T1 construct: 10% homogenates of CF1 male mouse liver; from tissue; host or cells: CF1 male mouse liver, 10% homogenate
# Protocol: In vitro enzymatic studies were determined using 10% homogenates of CF1 male mouse liver with 50-200 μM of test drugs. In vivo enzymatic studies were determined using 10% homogenates of liver from CF1 male mice obtained after administering the agents for 16 days at a dose ranging from 2.5-20 mg/kg/day intraperitoneally. The liver homogenates for both in vitro and in vivo studies were prepared in 0.25M sucrose and 0.001M (ethylenedinitrilo)tetraacetic acid. Acetyl coenzyme A synthetase and adenosine triphosphate dependent citrate lyase activities were determined spectrophotometrically at 540 nm as the hydroxylamate of acetyl coenzyme A formed after 30 min at 37° C. Mitochondrial citrate exchange was determined by the procedure of Robinson et al [Eur. J. Biochem., 216, 63 (1970)] using ^14 C-sodium bicarbonate (41 mCi/mmol) incorporated into mitochondrial ^14 C-citrate after isolating rat mitochondria (9000 g×10 min) from the homogenates. The exchanges of the ^14 C-citrate were determined after incubating the mitochondrial fraction which was loaded with labeled citrate and test drugs for 10 min. Then the radioactivity was measured in the mitochondrial and supernantant fractions in scintillation fluid and expressed as a percentage. Cholesterol side chain oxidation was determined by the method of Kritchevsky and Tepper [Artherosclerosis, 18, 93 (1973)] using (26-^14 C) cholesterol (50 mCi/mmol) and mitochondria isolated from rat liver homogenates. […] Fatty acid synthetase activity was determined by the method of Brady et al [J. Biol. Chem., 235, 3093 (1960)] using [2-^14 C] malonyl-coenzyme A (37.5 mCi/mmol) which was incorporated into newly synthesized fatty acids that were extracted with ether and counted. Acyl transferase activity was determined with glycerol-3phosphate [L-2-^3 H(N)] […] HCl and counted. Phosphatidate phosphohydrolase activity was measured as the inorganic phosphate released after 30 min from phosphatidic acid by the method of Mavis et al [J. Lipid Res., 19, 467 (1978)]. […]
# Holtzman male rats = assay: Plasma lipoprotein fractions; format: in vivo, rat; settings: 14 days 10 mg/kg/day orally
# Protocol: […] On day 14, blood was collected from the abdominal aorta. Serum was separated from whole blood by centrifugation at 3500 rpm. Aliquots (3 ml) were separated by density gradient ultracentrifugation according to the method of Hatch and Lees [Adv. Lipid Res., 6, 33 (1968)] and Havel et al [J. Clin. Invest., 34, 1395 (1955)] into the chylomicrons,very low density lipoproteins, high density lipoproteins and low density lipoproteins. Each of the fractions was analyzed for cholesterol, triglyceride, neutral lipids, phospholipids and protein levels.
# Data are expressed in the Table 2-7 as percent of control ± the standard deviation. The probable significant level (P) between each test group and the control group was determined by the Student's "t" test.
# [1] = tested on: deoxyribonucleic acid synthesis of Ehrlich ascites cells; assay: In vitro whole cell incorporation: deoxyribonucleic acid synthesis; format: cell-based, mouse; settings: preliminary, 60 min, read-out: ID50, inhibition of deoxyribonucleic acid synthesis
# Protocol: CF1 male mice (~30 g) were implanted with 2×10^6 Ehrlich ascites tumor cells, intraperitoneally on Day 0. Compound I was suspended by homogenation in 0.05% polysorbate.80-water and administered intraperitoneally at 10 and 20 mg/kg for 9 days to determine its effectiveness for inhibition of tumor growth. Mice were sacrificed on Day 10, and the ascites fluid was collected from the peritoneal cavity. The volume and ascrit (packed cell volume) were determined for each animal and the percent inhibition of tumor growth was calculated. For the metabolic studies, mice were treated on Days 8 and 9 with 10 mg/kg of Compound I, intraperitoneally. The animal was sacrificed on Day 10 and the ascites fluid harvested. The in vitro metabolic studies were performed at […] final concentration of Compound I.
# In vitro incorporation of ^3 H-thymidine, ^3 H-uridine, or ^3 H-leucine was determined using 10^6 Ehrlich ascites cells, 1 μCi labeled precursor, minimum essential medium and varying final concentrations of drug from 0.25-1.0 mM. The tubes were incubated at 37° C. for 60 min and inactivated by trichloroacetic acid. The acid insoluble labeled deoxyribonucleic acid was collected on GF/F glass filter discs and ribonucleic acid and protein were precipitated on nitrocellulose filters by vacuum suction. Results are expressed as dpm of incorporated precursor per hour per 10^6 cells.
# [2] = tested on: Phosphatidate Phosphohydrolase; assay: In vivo liver enzyme study: phosphatidate phosphohydrolase; set-up: species or system mouse; settings: for Phosphatidate Phosphohydrolase: CF1 liver after 16 days i.p.
# Protocol: In vitro enzymatic studies were determined using 10% homogenates of CF1 male mouse liver with 50-200 μM of test drugs. In vivo enzymatic studies were determined using 10% homogenates of liver from CF1 male mice obtained after administering the agents for 16 days at a dose ranging from 2.5-20 mg/kg/day intraperitoneally. The liver homogenates for both in vitro and in vivo studies were prepared in 0.25M sucrose and 0.001M (ethylenedinitrilo)tetraacetic acid. Acetyl coenzyme A synthetase and adenosine triphosphate dependent citrate lyase activities were determined spectrophotometrically at 540 nm as the hydroxylamate of acetyl coenzyme A formed after 30 min at 37° C. Mitochondrial citrate exchange was determined by the procedure of Robinson et al [Eur. J. Biochem., 216, 63 (1970)] using ^14 C-sodium bicarbonate (41 mCi/mmol) incorporated into mitochondrial ^14 C-citrate after isolating rat mitochondria (9000 g×10 min) from the homogenates. The exchanges of the ^14 C-citrate were determined after incubating the mitochondrial fraction which was loaded with labeled citrate and test drugs for 10 min. Then the radioactivity was measured in the mitochondrial and supernantant fractions in scintillation fluid and expressed as a percentage. Cholesterol side chain oxidation was determined by the method of Kritchevsky and Tepper [Artherosclerosis, 18, 93 (1973)] using (26-^14 C) cholesterol (50 mCi/mmol) and mitochondria isolated from rat liver homogenates. After 18 hr incubation at 37° C. with test drugs, the generated ^14 CO2 was trapped in the center well in {2-(2-(p-1,1,3,3,-tetramethylbutylcresoxy)ethoxy]ethyl } dimethylbenzylammonium hydroxide and counted. 3-Hydroxy-3-methylglutaryl coenzyme A reductase (HMG coenzyme A reductase) activity was measured using 1-^14 C-acetate (56 mCi/mmol) and a post-mitochondrial supernatant (9000 g×20 min) incubated for 60 min at 37° C. [Wada et al, J. Biochem. (Tokyo), 65 71 (1969)]. The digitonide derivative of cholesterol was isolated and counted. Acetyl coenzyme A carboxylase activity was measured by the method of Greenspan and Lowenstein [J. Biol. Chem., 243, 6273 (1968)]. […] Fatty acid synthetase activity was determined by the method of Brady et al [J. Biol. Chem., 235, 3093 (1960)] using [2-^14 C] malonyl-coenzyme A (37.5 mCi/mmol) which was incorporated into newly synthesized fatty acids that were extracted with ether and counted. Acyl transferase activity was determined with glycerol-3phosphate [L-2-^3 H(N)] […] HCl and counted. Phosphatidate phosphohydrolase activity was measured as the inorganic phosphate released after 30 min from phosphatidic acid by the method of Mavis et al [J. Lipid Res., 19, 467 (1978)]. The released inorganic phosphate after development with ascorbic acid and ammonium molybdate was determined at 820 nm. […]
# T1 sequence (P19096 whole entry): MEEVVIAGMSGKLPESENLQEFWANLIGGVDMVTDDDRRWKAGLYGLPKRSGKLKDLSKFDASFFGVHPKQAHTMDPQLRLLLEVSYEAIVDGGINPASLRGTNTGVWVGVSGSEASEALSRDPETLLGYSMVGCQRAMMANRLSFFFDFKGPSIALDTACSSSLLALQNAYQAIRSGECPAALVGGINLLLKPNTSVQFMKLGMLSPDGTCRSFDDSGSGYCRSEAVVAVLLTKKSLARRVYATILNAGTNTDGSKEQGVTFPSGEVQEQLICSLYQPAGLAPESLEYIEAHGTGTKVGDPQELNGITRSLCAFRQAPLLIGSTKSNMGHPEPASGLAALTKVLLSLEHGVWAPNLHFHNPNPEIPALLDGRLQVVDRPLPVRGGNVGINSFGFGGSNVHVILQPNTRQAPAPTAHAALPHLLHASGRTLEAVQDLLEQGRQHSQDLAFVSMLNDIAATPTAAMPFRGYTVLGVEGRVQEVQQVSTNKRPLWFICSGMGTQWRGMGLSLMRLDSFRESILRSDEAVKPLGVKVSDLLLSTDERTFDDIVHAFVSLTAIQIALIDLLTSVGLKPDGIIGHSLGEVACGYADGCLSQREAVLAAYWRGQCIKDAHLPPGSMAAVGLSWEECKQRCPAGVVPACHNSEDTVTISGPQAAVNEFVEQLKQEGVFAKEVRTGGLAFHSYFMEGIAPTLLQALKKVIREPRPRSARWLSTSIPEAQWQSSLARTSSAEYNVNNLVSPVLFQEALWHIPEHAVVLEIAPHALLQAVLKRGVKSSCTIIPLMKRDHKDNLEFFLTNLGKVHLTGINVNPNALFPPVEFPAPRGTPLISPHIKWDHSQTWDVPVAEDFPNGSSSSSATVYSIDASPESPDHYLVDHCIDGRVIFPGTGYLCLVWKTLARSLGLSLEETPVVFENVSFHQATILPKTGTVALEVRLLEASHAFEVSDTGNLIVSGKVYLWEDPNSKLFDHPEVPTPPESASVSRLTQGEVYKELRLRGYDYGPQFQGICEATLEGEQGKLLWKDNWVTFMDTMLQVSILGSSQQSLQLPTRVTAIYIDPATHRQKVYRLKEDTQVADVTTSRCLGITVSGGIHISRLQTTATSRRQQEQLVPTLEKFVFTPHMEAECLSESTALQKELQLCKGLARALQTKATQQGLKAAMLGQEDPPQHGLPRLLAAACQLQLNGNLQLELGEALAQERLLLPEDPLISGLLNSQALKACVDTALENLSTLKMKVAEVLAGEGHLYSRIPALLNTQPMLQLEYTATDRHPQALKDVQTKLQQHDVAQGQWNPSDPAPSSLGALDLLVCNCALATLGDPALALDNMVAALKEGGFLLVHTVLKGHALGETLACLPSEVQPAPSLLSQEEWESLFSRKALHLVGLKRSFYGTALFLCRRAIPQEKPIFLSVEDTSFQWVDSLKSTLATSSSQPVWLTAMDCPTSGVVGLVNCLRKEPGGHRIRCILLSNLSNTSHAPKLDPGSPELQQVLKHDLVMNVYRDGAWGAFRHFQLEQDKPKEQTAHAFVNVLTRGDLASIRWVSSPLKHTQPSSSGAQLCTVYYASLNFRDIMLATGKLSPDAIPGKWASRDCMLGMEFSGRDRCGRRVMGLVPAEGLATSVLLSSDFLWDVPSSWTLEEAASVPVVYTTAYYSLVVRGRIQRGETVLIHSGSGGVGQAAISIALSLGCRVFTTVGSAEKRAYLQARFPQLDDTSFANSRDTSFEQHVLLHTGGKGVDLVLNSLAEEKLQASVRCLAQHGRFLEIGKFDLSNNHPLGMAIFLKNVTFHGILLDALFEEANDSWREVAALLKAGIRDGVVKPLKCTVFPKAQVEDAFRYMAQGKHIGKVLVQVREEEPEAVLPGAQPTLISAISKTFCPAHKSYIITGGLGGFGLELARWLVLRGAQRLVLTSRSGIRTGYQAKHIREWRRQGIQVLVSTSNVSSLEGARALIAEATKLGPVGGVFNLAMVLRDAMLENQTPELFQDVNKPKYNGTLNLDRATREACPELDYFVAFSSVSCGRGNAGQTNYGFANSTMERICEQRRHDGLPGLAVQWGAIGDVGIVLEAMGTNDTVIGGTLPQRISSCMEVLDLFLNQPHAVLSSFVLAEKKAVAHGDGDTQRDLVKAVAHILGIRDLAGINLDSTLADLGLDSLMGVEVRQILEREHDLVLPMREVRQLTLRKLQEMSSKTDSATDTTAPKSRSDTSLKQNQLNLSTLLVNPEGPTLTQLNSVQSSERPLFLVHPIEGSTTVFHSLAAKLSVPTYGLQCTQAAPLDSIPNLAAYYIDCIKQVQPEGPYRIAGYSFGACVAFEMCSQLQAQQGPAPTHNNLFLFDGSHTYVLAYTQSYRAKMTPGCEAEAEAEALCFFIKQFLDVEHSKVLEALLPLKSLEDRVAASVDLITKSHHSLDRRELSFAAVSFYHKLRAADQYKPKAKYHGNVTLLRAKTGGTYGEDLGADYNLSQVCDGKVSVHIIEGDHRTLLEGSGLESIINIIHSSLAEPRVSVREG
substance,measurement,setting,value
{Cu[(CH3)3 N.BH2 CO2 ]2.(CH3)3 N.BH2 COOH} [Compound I],Fatty Acid Synthetase,Fatty Acid Synthetase; 50 μM,86 ± 7 Percent Control
same,Fatty Acid Synthetase,Fatty Acid Synthetase; 100 μM,96 ± 8 Percent Control
same,Fatty Acid Synthetase,Fatty Acid Synthetase; 200 μM,87 ± 7 Percent Control
same,Cholesterol,Holtzman male rats; rat serum Chylomicrons,88 ± 6 Percent Control
same,Neutral Lipids,Holtzman male rats; rat serum Chylomicrons,67 ± 7 Percent Control
same,Phospholipids,Holtzman male rats; rat serum Chylomicrons,96 ± 6 Percent Control
same,Protein,Holtzman male rats; rat serum Chylomicrons,99 ± 7 Percent Control
same,Triglyceride,Holtzman male rats; rat serum Chylomicrons,58 ± 5 Percent Control
same,Cholesterol,Holtzman male rats; rat serum HDL,64 ± 5 Percent Control
same,Neutral Lipids,Holtzman male rats; rat serum HDL,72 ± 8 Percent Control
same,Phospholipids,Holtzman male rats; rat serum HDL,86 ± 7 Percent Control
same,Protein,Holtzman male rats; rat serum HDL,108 ± 8 Percent Control
same,Triglyceride,Holtzman male rats; rat serum HDL,31 ± 5 Percent Control
same,Cholesterol,Holtzman male rats; rat serum LDL,68 ± 6 Percent Control
same,Neutral Lipids,Holtzman male rats; rat serum LDL,78 ± 7 Percent Control
same,Phospholipids,Holtzman male rats; rat serum LDL,105 ± 6 Percent Control
same,Protein,Holtzman male rats; rat serum LDL,101 ± 6 Percent Control
same,Triglyceride,Holtzman male rats; rat serum LDL,70 ± 6 Percent Control
same,Cholesterol,Holtzman male rats; rat serum VLDL,32 ± 3 Percent Control
same,Neutral Lipids,Holtzman male rats; rat serum VLDL,62 ± 5 Percent Control
same,Phospholipids,Holtzman male rats; rat serum VLDL,100 ± 7 Percent Control
same,Protein,Holtzman male rats; rat serum VLDL,96 ± 7 Percent Control
same,Triglyceride,Holtzman male rats; rat serum VLDL,43 ± 4 Percent Control
same,IC50,[1],940 µM
same,Phosphatidate Phosphohydrolase,[2]; 2.5 mg/kg,55 ± 5% of control
same,Phosphatidate Phosphohydrolase,[2]; 5.0 mg/kg,53 ± 5% of control
same,Phosphatidate Phosphohydrolase,[2]; 10 mg/kg,18% of control
same,Phosphatidate Phosphohydrolase activity reduction,"[2]; in vivo, mice 16 days, 10 mg/kg/day",82%
